In PMC5218480 (PLoS ONE, 2017):

System: MV-4-11 cells
Test: Gene expression microarray analysis (Affymetrix PrimeView) and GSEA
Type: cell-based, human
Design: RFU PODN (11730768_x_at) / Fold change /veh PODN (11730768_x_at) / RFU LINC00158 (11744669_a_at) / Fold change /veh LINC00158 (11744669_a_at) / RFU DUSP10 (11751237_a_at) / Fold change /veh DUSP10 (11751237_a_at) / RFU ID3 (11757404_x_at) / Fold change /veh ID3 (11757404_x_at) / RFU PLEKHG5 (11737974_s_at) / Fold change /veh PLEKHG5 (11737974_s_at) / RFU LRRC4B (11730491_at) / Fold change /veh LRRC4B (11730491_at) / RFU GIMAP4 (11747438_a_at) / Fold change /veh GIMAP4 (11747438_a_at) / RFU KRT8 (11758183_x_at) / Fold change /veh KRT8 (11758183_x_at) / RFU CNN1 (11734310_a_at) / Fold change /veh CNN1 (11734310_a_at) / RFU VPS37D (11726825_at) / Fold change /veh VPS37D (11726825_at) / RFU C10orf10 (11716522_x_at) / Fold change /veh C10orf10 (11716522_x_at) / RFU KIR2DL2 /// KIR2DL4 /// KIR2DL5A /// KIR2DL5B /// KIR2DS1 /// KIR2DS2 /// KIR2DS3 /// KIR2DS4 /// KIR3DL3 /// KIR3DL3 /// KIR3DS1 (11738374_at) / Fold change /veh KIR2DL2 /// KIR2DL4 /// KIR2DL5A /// KIR2DL5B /// KIR2DS1 /// KIR2DS2 /// KIR2DS3 /// KIR2DS4 /// KIR3DL3 /// KIR3DL3 /// KIR3DS1 (11738374_at) / RFU C1QL1 (11718748_at) / Fold change /veh C1QL1 (11718748_at) / RFU TMPRSS4 (11747572_a_at) / Fold change /veh TMPRSS4 (11747572_a_at) / RFU HAMP (11756126_x_at) / Fold change /veh HAMP (11756126_x_at) / RFU RNFT2 (11725882_a_at) / Fold change /veh RNFT2 (11725882_a_at) / RFU NR4A2 (11747474_a_at) / Fold change /veh NR4A2 (11747474_a_at) / RFU ABCC12 (11746883_a_at) / Fold change /veh ABCC12 (11746883_a_at) / RFU TMEM136 (11760407_x_at) / Fold change /veh TMEM136 (11760407_x_at) / RFU CLDN22 /// WWC2 (11732394_at) / Fold change /veh CLDN22 /// WWC2 (11732394_at) / RFU HLA-DPB1 (11760878_x_at) / Fold change /veh HLA-DPB1 (11760878_x_at) / RFU SPINT1 (11716480_a_at) / Fold change /veh SPINT1 (11716480_a_at) / RFU GAP43 (11754022_s_at) / Fold change /veh GAP43 (11754022_s_at) / RFU A4GNT (11735810_at) / Fold change /veh A4GNT (11735810_at) / RFU PRB3 (11715151_x_at) / Fold change /veh PRB3 (11715151_x_at) / RFU TUBB4B (11761932_at) / Fold change /veh TUBB4B (11761932_at) / RFU CAPN14 (11732068_a_at) / Fold change /veh CAPN14 (11732068_a_at) / RFU TMCC2 (11721928_a_at) / Fold change /veh TMCC2 (11721928_a_at) / RFU IRGQ (11745062_a_at) / Fold change /veh IRGQ (11745062_a_at) / RFU FAM174B (11720279_a_at) / Fold change /veh FAM174B (11720279_a_at) / RFU TMPRSS4 (11748680_a_at) / Fold change /veh TMPRSS4 (11748680_a_at) / RFU FAM212B (11763350_a_at) / Fold change /veh FAM212B (11763350_a_at) / RFU PLEKHG5 (11743358_a_at) / Fold change /veh PLEKHG5 (11743358_a_at) / RFU ZSCAN30 (11745921_a_at) / Fold change /veh ZSCAN30 (11745921_a_at) / RFU CMKLR1 (11741424_a_at) / Fold change /veh CMKLR1 (11741424_a_at) / RFU LOC101060620 /// MAPK8IP1 (11723275_at) / Fold change /veh LOC101060620 /// MAPK8IP1 (11723275_at) / RFU SPTSSB (11747773_x_at) / Fold change /veh SPTSSB (11747773_x_at) / RFU PRSS12 (11739890_at) / Fold change /veh PRSS12 (11739890_at) / RFU BIN1 (11741810_x_at) / Fold change /veh BIN1 (11741810_x_at) / RFU WNT11 (11732464_a_at) / Fold change /veh WNT11 (11732464_a_at) / RFU C10orf10 (11716521_a_at) / Fold change /veh C10orf10 (11716521_a_at) / RFU C5orf56 (11738089_at) / Fold change /veh C5orf56 (11738089_at) / RFU CYB561 (11721691_x_at) / Fold change /veh CYB561 (11721691_x_at) / RFU ANKRD19P (11752326_a_at) / Fold change /veh ANKRD19P (11752326_a_at) / RFU OR2T12 /// OR2T33 /// OR2T8 (11738714_s_at) / Fold change /veh OR2T12 /// OR2T33 /// OR2T8 (11738714_s_at) / RFU VCAN (11748164_a_at) / Fold change /veh VCAN (11748164_a_at) / RFU JSRP1 (11732532_at) / Fold change /veh JSRP1 (11732532_at) / RFU KRTAP10-11 (11738290_x_at) / Fold change /veh KRTAP10-11 (11738290_x_at) / RFU MYO3A (11730013_a_at) / Fold change /veh MYO3A (11730013_a_at) / RFU EBF3 (11725865_a_at) / Fold change /veh EBF3 (11725865_a_at) / RFU CAMK2N1 (11719241_x_at) / Fold change /veh CAMK2N1 (11719241_x_at) / RFU C5orf56 (11738088_a_at) / Fold change /veh C5orf56 (11738088_a_at) / RFU OLFML3 (11715873_a_at) / Fold change /veh OLFML3 (11715873_a_at) / RFU LOC100653217 /// NTM (11731650_a_at) / Fold change /veh LOC100653217 /// NTM (11731650_a_at) / RFU MAPK11 (11762145_a_at) / Fold change /veh MAPK11 (11762145_a_at) / RFU FIZ1 (11724087_x_at) / Fold change /veh FIZ1 (11724087_x_at) / RFU OASL (11726364_x_at) / Fold change /veh OASL (11726364_x_at) / RFU SOX15 (11748057_x_at) / Fold change /veh SOX15 (11748057_x_at) / RFU CD79A (11719716_a_at) / Fold change /veh CD79A (11719716_a_at) / RFU HIST1H1D (11736915_at) / Fold change /veh HIST1H1D (11736915_at) / RFU CASKIN2 (11723855_a_at) / Fold change /veh CASKIN2 (11723855_a_at) / RFU LOC730098 (11760151_x_at) / Fold change /veh LOC730098 (11760151_x_at) / RFU OR4N2 (11742367_at) / Fold change /veh OR4N2 (11742367_at) / RFU PRRT2 (11749266_a_at) / Fold change /veh PRRT2 (11749266_a_at) / RFU SNX32 (11753110_a_at) / Fold change /veh SNX32 (11753110_a_at) / RFU CDHR5 (11726645_a_at) / Fold change /veh CDHR5 (11726645_a_at) / RFU RCAN1 (11760418_a_at) / Fold change /veh RCAN1 (11760418_a_at) / RFU FAM167A (11723789_a_at) / Fold change /veh FAM167A (11723789_a_at) / RFU FAM26E (11764081_at) / Fold change /veh FAM26E (11764081_at) / RFU ISYNA1 (11749810_s_at) / Fold change /veh ISYNA1 (11749810_s_at) / RFU ACY1 (11761880_at) / Fold change /veh ACY1 (11761880_at) / RFU 11764098_at / Fold change /veh 11764098_at / RFU SAMD14 (11745864_x_at) / Fold change /veh SAMD14 (11745864_x_at) / RFU NPB (11741838_a_at) / Fold change /veh NPB (11741838_a_at) / RFU TMPRSS6 (11731388_a_at) / Fold change /veh TMPRSS6 (11731388_a_at) / RFU KRTAP10-2 (11738614_at) / Fold change /veh KRTAP10-2 (11738614_at) / RFU ARHGAP8 /// PRR5-ARHGAP8 (11727945_x_at) / Fold change /veh ARHGAP8 /// PRR5-ARHGAP8 (11727945_x_at) / RFU KRTAP5-7 /// NADSYN1 (11734609_at) / Fold change /veh KRTAP5-7 /// NADSYN1 (11734609_at) / RFU RASL12 (11751679_a_at) / Fold change /veh RASL12 (11751679_a_at) / RFU CDKN2B (11736163_a_at) / Fold change /veh CDKN2B (11736163_a_at) / RFU PRF1 (11729649_at) / Fold change /veh PRF1 (11729649_at) / RFU, ZNF638 /// ZNF638-IT1 / Fold change vs veh, ZNF638 /// ZNF638-IT1 / RFU, PANK3 / Fold change vs veh, PANK3 / RFU, SH3YL1 / Fold change vs veh, SH3YL1 / RFU, ZEB2 / Fold change vs veh, ZEB2 / RFU, NRIP1 / Fold change vs veh, NRIP1 / RFU, PTTG1IP / Fold change vs veh, PTTG1IP / RFU, CAPN2 / Fold change vs veh, CAPN2 / RFU, MED14 / Fold change vs veh, MED14 / RFU, SNORA58 / Fold change vs veh, SNORA58 / RFU, C1orf63 / Fold change vs veh, C1orf63 / RFU, LRRFIP1 / Fold change vs veh, LRRFIP1 / RFU, NDUFAF7 / Fold change vs veh, NDUFAF7 / RFU, SLC12A2 / Fold change vs veh, SLC12A2 / RFU, IBTK / Fold change vs veh, IBTK / RFU, ESF1 / Fold change vs veh, ESF1 / Fold change vs veh, TMEM50B / RFU, TAOK1 / Fold change vs veh, TAOK1 / RFU, ACBD3 / Fold change vs veh, ACBD3 / RFU, TMA16 / Fold change vs veh, TMA16 / RFU, RWDD3 / Fold change vs veh, RWDD3 / RFU, BCAT1 / Fold change vs veh, BCAT1 / RFU, EDEM3 / Fold change vs veh, EDEM3 / RFU, TMEM33 / Fold change vs veh, TMEM33 / RFU, WDR75 / Fold change vs veh, WDR75 / RFU, AHCTF1 / Fold change vs veh, AHCTF1 / RFU, TFRC / Fold change vs veh, TFRC / RFU, ZDHHC17 / Fold change vs veh, ZDHHC17 / RFU, NOM1 / Fold change vs veh, NOM1 / RFU, ARL8B / Fold change vs veh, ARL8B / RFU, ZBTB11 / Fold change vs veh, ZBTB11 / RFU, TAMM41 / Fold change vs veh, TAMM41 / RFU, KIAA1704 /// LOC100996395 / Fold change vs veh, KIAA1704 /// LOC100996395 / RFU, ING1 / Fold change vs veh, ING1 / RFU, TRMT61B / Fold change vs veh, TRMT61B / RFU, FUBP3 / Fold change vs veh, FUBP3 / RFU, TP53 / Fold change vs veh, TP53 / RFU, TNKS2 / Fold change vs veh, TNKS2 / RFU, ZFP14 / Fold change vs veh, ZFP14 / RFU, ACTR2 / Fold change vs veh, ACTR2 / RFU, PPP3R1 / Fold change vs veh, PPP3R1 / RFU, PIK3R1 / Fold change vs veh, PIK3R1 / RFU, HNRNPA1 / Fold change vs veh, HNRNPA1 / RFU, RNF170 / Fold change vs veh, RNF170 / RFU, ZNF28 / Fold change vs veh, ZNF28 / RFU, RNGTT / Fold change vs veh, RNGTT / RFU, OGT / Fold change vs veh, OGT / RFU, BRD1 / Fold change vs veh, BRD1 / RFU, MARS / Fold change vs veh, MARS / RFU, ZNF655 / Fold change vs veh, ZNF655 / RFU, FAHD1 / Fold change vs veh, FAHD1 / RFU, BDP1 / Fold change vs veh, BDP1 / RFU, LRRCC1 / Fold change vs veh, LRRCC1 / RFU, ARID1A / Fold change vs veh, ARID1A / RFU, ZNF146 / Fold change vs veh, ZNF146 / RFU, ZNF330 / Fold change vs veh, ZNF330 / RFU, GPN3 / Fold change vs veh, GPN3 / RFU, C9orf123 / Fold change vs veh, C9orf123 / RFU, N4BP2L2 / Fold change vs veh, N4BP2L2 / RFU, ARFIP1 / Fold change vs veh, ARFIP1 / RFU, FAM179B / Fold change vs veh, FAM179B / RFU, BCL10 / Fold change vs veh, BCL10 / RFU, UHRF1BP1L / Fold change vs veh, UHRF1BP1L / RFU, BET1 / Fold change vs veh, BET1 / RFU, CNOT2 / Fold change vs veh, CNOT2 / RFU, ZNF268 / Fold change vs veh, ZNF268 / Fold change vs veh, ZNF507 / RFU, DGCR2 / Fold change vs veh, DGCR2 / RFU, WDSUB1 / Fold change vs veh, WDSUB1 / Fold change vs veh, HSP90B1 /// MIR3652 / RFU, ADSS / Fold change vs veh, ADSS / RFU, GK / Fold change vs veh, GK / RFU, ZNF148 / Fold change vs veh, ZNF148 / RFU, TAF9 / Fold change vs veh, TAF9 / RFU, SLC1A5 / Fold change vs veh, SLC1A5 / RFU, SLMO2 / Fold change vs veh, SLMO2 / RFU, ABCC4 / Fold change vs veh, ABCC4 / RFU, LOC101060439 /// RAP1B / Fold change vs veh, LOC101060439 /// RAP1B / RFU, RFX7 / Fold change vs veh, RFX7 / RFU, GTPBP10 / Fold change vs veh, GTPBP10 / RFU, CNEP1R1 / Fold change vs veh, CNEP1R1 / RFU, BIVM-ERCC5 /// ERCC5 / Fold change vs veh, BIVM-ERCC5 /// ERCC5 / RFU, ILF3 / Fold change vs veh, ILF3 / RFU 11762660_at / Fold change /veh 11762660_at / RFU VCAN (11757783_s_at) / Fold change /veh VCAN (11757783_s_at) / RFU DDX43 (11728927_at) / Fold change /veh DDX43 (11728927_at) / RFU KRT8 (11758188_x_at) / Fold change /veh KRT8 (11758188_x_at) / RFU NKD1 (11759106_at) / Fold change /veh NKD1 (11759106_at) / RFU SRD5A1 (11742802_a_at) / Fold change /veh SRD5A1 (11742802_a_at) / RFU TPSAB1 /// TPSB2 (11721975_s_at) / Fold change /veh TPSAB1 /// TPSB2 (11721975_s_at) / RFU GSTM3 (11746129_a_at) / Fold change /veh GSTM3 (11746129_a_at) / RFU IL23R (11737362_x_at) / Fold change /veh IL23R (11737362_x_at) / RFU TMEM51 (11727254_a_at) / Fold change /veh TMEM51 (11727254_a_at) / RFU PIWIL2 (11732686_x_at) / Fold change /veh PIWIL2 (11732686_x_at) / RFU ORM1 (11744905_x_at) / Fold change /veh ORM1 (11744905_x_at) / RFU CCDC152 (11743942_at) / Fold change /veh CCDC152 (11743942_at) / RFU ECM1 (11717891_a_at) / Fold change /veh ECM1 (11717891_a_at) / RFU IL23R (11748794_a_at) / Fold change /veh IL23R (11748794_a_at) / RFU TNFAIP8L3 (11732012_x_at) / Fold change /veh TNFAIP8L3 (11732012_x_at) / RFU MBOAT4 (11741988_at) / Fold change /veh MBOAT4 (11741988_at) / RFU 11764193_at / Fold change /veh 11764193_at / RFU TMEM53 (11763286_at) / Fold change /veh TMEM53 (11763286_at) / RFU MAGEB2 (11727129_at) / Fold change /veh MAGEB2 (11727129_at) / RFU TMEM200A (11744735_a_at) / Fold change /veh TMEM200A (11744735_a_at) / RFU CCDC152 (11751479_a_at) / Fold change /veh CCDC152 (11751479_a_at) / RFU FAM211A (11726209_a_at) / Fold change /veh FAM211A (11726209_a_at) / RFU RGS16 (11746705_a_at) / Fold change /veh RGS16 (11746705_a_at) / RFU VCAN (11755009_s_at) / Fold change /veh VCAN (11755009_s_at) / RFU RHOB (11743442_s_at) / Fold change /veh RHOB (11743442_s_at) / RFU RGS16 (11720943_a_at) / Fold change /veh RGS16 (11720943_a_at) / RFU RGS16 (11720944_at) / Fold change /veh RGS16 (11720944_at) / RFU, VPS4B / Fold change vs veh, VPS4B / RFU, CREB1 / Fold change vs veh, CREB1 / RFU, DNAJC13 / Fold change vs veh, DNAJC13 / RFU, GNAQ / Fold change vs veh, GNAQ / RFU, CDK5R1 / Fold change vs veh, CDK5R1 / RFU, ZRANB3 / Fold change vs veh, ZRANB3 / RFU, CUL4A / Fold change vs veh, CUL4A / RFU, CCNY / Fold change vs veh, CCNY / RFU, UFL1 / Fold change vs veh, UFL1 / RFU, COG3 / Fold change vs veh, COG3 / RFU, DIAPH2 / Fold change vs veh, DIAPH2 / RFU, SKA2 / Fold change vs veh, SKA2 / RFU, AFF3 / Fold change vs veh, AFF3 / RFU, LMF1 / Fold change vs veh, LMF1 / RFU, IPO11 / Fold change vs veh, IPO11 / RFU, DFFB / Fold change vs veh, DFFB / RFU, FOXP1 / Fold change vs veh, FOXP1 / RFU, CARD8 / Fold change vs veh, CARD8 / RFU, STRN3 / Fold change vs veh, STRN3 / RFU, ADK / Fold change vs veh, ADK / RFU, RASSF2 / Fold change vs veh, RASSF2 / RFU, WIPF1 / Fold change vs veh, WIPF1 / RFU, LARP1B / Fold change vs veh, LARP1B / RFU, RASA1 / Fold change vs veh, RASA1 / RFU, RB1 / Fold change vs veh, RB1 / RFU, PPFIA1 / Fold change vs veh, PPFIA1 / RFU, MAT2A / Fold change vs veh, MAT2A / RFU, CCT5 / Fold change vs veh, CCT5 / RFU, WDR92 / Fold change vs veh, WDR92 / RFU, CUX1 / Fold change vs veh, CUX1 / RFU, TTC7A / Fold change vs veh, TTC7A / RFU, TMEM135 / Fold change vs veh, TMEM135 / RFU, DEPTOR / Fold change vs veh, DEPTOR / RFU, CPM / Fold change vs veh, CPM / RFU, DNAJB6 / Fold change vs veh, DNAJB6 / RFU, CACNA2D3 / Fold change vs veh, CACNA2D3 / RFU, DTX4 / Fold change vs veh, DTX4 / RFU, TFCP2 / Fold change vs veh, TFCP2 / RFU, GMCL1 /// GMCL1P1 / Fold change vs veh, GMCL1 /// GMCL1P1 / RFU, AEBP2 / Fold change vs veh, AEBP2 / RFU, SNHG1 /// SNORD22 /// SNORD25 /// SNORD26 /// SNORD27 /// SNORD28 /// SNORD29 /// SNORD31 / Fold change vs veh, SNHG1 /// SNORD22 /// SNORD25 /// SNORD26 /// SNORD27 /// SNORD28 /// SNORD29 /// SNORD31 / Fold change (Aza/veh), C12orf56 (ProbeSet 11735607_a_at) / Fold change (ACY-1035/veh), C12orf56 (ProbeSet 11735607_a_at) / Fold change (Aza/veh), FGFR1OP (ProbeSet 11751329_s_at) / Fold change (ACY-1035/veh), FGFR1OP (ProbeSet 11751329_s_at) / Fold change (Aza/veh), VPS36 (ProbeSet 11739960_a_at) / Fold change (ACY-1035/veh), VPS36 (ProbeSet 11739960_a_at) / RFU SYPL1 (11715823_x_at) / Fold change /veh SYPL1 (11715823_x_at) / RFU IGFBP7 (11715501_s_at) / Fold change /veh IGFBP7 (11715501_s_at) / RFU REEP3 (11722064_at) / Fold change /veh REEP3 (11722064_at) / RFU IGLL1 (11728026_x_at) / Fold change /veh IGLL1 (11728026_x_at): dose or concentration left out as unconfirmed
Details: MV-4-11 cells, 48 hours

SMILES: Nc1ccc(-c2cccs2)cc1NC(=O)c1ccc2c(c1)cc(C1CC1)n2CCN1CCOCC1 [ACY-1035]
- Fold change /veh REEP3 (11722064_at): 0.53
